# Measured values reported in patent US8530460B2, “Azetidine derivatives” (Boehringer Ingelheim International GmbH, priority 2011, dated 2013).
# Molecular target: human ACC2 (Homo sapiens (Human), UniProt O00763)
# Assay: ACC2 assay (spectrophotometric 384 well assay, NADH-linked coupled lactate dehydrogenase/pyruvate kinase)
# Type: biochemical
# Conditions: not given
# Description: Spectrophotometric 384 Well Assay
# Malonyl CoA formation by acetyl CoA carboxylases is stoichometrically linked to the consumption of ATP. ACC2 activity is measured in a NADH-linked kinetic method measuring ADP generated during the ACC reaction using a coupled lactate dehydrogenase/pyruvate kinase reaction.
# For biological testing, a human ACC2 construct which lacks the 128 amino acids at the N-terminus for increased solubility (nt 385-6966 in Genbank entry AJ575592) is cloned. The protein is then expressed in insect cells using a baculoviral expression system. Protein purification is performed by anion exchange.
# All compounds are dissolved in dimethyl sulfoxide (DMSO) to a concentration of 10 mM.
# Assay reactions are then carried out in 384-well plates, with hACC2 in an appropriate dilution and at final assay concentrations (f.c.) of 100 mM Tris (pH 7.5), 10 mM trisodium citrate, 25 mM KHCO3, 10 mM MgCl2, 0.5 mg/ml BSA, 3.75 mM reduced L-glutathione, 15 U/ml lactate dehydrogenase, 0.5 mM phosphoenolpyruvate, 15 U/ml pyruvate kinase, compounds at different concentrations at final DMSO concentrations of 1%.
# The enzymatic reaction is then started by addition of a mixture of NADH, acetyl Coenzyme A (both 200 μM f.c.) and ATP (500 uM f.c.). The decrease of the optical density (slope S) is then determined at 25° C. at a wavelength of 340 nm over 15 minutes in a spectrophotometric reader.
# Each assay microtiter plate contains wells with vehicle instead of compound as controls for the non-inhibited enzyme (100% CTL; ‘HIGH’) and wells without acetyl-CoA as controls for non-specific NADH degradation (0% CTL; ‘LOW’).
# The slope S is used for calculation of % CTL=(S(compound)−S(‘LOW’))/(S(‘HIGH’)—S(‘LOW’))*100. Compounds will give values between 100% CTL (no inhibition) and 0% CTL (complete inhibition).
# For IC50 value determination, the sample slope in the presence of the test compound after subtraction of the low controls (S(compound)−S(‘LOW’)) are used.
# An IC50 value is derived from the compound slopes at different dosages after subtraction of the low controls (S(compound)−S(‘LOW’)) by non-linear regression curve fitting (equation y=(A+((B−A)/(1+((C/x)^D))))).
# Sequence of human ACC2 (O00763 129-2458): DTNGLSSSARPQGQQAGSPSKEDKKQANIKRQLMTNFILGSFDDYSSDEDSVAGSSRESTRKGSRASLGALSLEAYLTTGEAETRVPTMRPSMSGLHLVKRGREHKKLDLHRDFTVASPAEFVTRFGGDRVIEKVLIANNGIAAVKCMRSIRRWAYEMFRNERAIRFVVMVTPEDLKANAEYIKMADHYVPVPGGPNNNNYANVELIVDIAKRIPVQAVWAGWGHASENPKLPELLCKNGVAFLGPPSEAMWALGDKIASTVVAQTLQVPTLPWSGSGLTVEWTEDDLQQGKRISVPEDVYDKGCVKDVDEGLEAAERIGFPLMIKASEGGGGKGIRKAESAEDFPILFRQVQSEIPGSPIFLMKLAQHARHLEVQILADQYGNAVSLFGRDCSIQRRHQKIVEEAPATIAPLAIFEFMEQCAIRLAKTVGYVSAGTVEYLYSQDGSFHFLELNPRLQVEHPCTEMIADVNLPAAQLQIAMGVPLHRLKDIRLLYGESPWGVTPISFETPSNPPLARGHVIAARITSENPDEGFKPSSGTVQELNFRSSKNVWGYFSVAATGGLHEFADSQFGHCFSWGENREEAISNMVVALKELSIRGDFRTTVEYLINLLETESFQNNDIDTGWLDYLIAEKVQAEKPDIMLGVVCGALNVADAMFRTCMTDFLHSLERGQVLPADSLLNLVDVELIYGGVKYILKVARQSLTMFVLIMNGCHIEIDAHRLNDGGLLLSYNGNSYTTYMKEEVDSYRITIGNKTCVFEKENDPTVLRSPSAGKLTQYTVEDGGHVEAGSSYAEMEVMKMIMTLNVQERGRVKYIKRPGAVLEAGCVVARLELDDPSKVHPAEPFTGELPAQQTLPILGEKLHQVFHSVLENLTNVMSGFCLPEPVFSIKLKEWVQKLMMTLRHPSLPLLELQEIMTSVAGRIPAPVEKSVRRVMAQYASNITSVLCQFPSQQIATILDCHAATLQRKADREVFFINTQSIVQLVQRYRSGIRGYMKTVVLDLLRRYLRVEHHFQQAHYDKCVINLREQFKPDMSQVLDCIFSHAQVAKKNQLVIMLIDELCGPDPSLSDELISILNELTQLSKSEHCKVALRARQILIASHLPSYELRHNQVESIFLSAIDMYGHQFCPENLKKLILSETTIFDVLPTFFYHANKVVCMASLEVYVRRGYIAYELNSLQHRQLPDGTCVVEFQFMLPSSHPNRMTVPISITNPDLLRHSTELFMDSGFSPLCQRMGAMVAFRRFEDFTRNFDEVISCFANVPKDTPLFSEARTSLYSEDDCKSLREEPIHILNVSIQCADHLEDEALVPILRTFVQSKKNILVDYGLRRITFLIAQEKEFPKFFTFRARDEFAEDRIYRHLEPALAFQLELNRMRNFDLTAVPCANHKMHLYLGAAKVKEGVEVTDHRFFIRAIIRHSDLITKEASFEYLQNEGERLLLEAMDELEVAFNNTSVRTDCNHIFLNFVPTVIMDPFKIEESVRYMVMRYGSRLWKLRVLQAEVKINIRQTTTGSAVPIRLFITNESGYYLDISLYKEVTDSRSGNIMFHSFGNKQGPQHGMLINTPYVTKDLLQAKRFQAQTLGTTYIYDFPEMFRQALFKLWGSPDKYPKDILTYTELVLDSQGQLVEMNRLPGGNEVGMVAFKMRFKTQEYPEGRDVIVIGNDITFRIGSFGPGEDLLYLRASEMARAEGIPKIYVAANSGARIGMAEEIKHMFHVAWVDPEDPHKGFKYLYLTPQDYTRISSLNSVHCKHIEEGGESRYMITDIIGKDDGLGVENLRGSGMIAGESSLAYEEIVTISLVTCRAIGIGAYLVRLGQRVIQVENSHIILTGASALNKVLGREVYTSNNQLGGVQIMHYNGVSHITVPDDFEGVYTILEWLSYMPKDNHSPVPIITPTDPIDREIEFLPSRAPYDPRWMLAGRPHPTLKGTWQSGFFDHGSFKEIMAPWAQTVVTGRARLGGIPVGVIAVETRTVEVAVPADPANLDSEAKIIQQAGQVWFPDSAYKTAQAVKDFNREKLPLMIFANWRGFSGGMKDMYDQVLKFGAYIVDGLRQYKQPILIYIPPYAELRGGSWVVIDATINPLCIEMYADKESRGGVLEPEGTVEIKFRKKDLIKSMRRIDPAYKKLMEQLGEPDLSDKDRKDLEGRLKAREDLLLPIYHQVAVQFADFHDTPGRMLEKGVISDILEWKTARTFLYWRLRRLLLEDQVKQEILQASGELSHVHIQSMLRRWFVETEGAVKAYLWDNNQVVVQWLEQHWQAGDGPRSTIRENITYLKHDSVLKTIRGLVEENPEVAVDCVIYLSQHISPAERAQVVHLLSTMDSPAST
row,Structure (SMILES),IC50 [µM]
1,"CC(=O)N[C@@H](C)c1ccc(OC2CN(c3ccc(OCC4CC4)nc3)C2)cc1 [Example 2.1, (S)—N-(1-(4-(1-(6-(Cyclopropylmethoxy)Pyridin-3-yl)azetidin-3-yloxy)phenyl)ethyl)-acetamide]",0.88

# Same assay, conditions: hACC2 construct lacking 128 N-terminal amino acids; 25° C., 340 nm, 15 minutes
row,Structure (SMILES),IC50 [µM]
1,COc1ccc2nc(N3CC(Oc4ccc([C@H](C)NC(C)=O)cc4)C3)ccc2c1 [Example 4.22],0.45
2,CCCOc1ccc(N2CC(Oc3ccc([C@H](C)NC(C)=O)cc3)C2)c(OC)c1 [Example 1.21],0.19
3,CC(=O)N[C@@H](C)c1ccc(OC2CN(c3ncc(C(C)(C)C)cn3)C2)cc1 [Example 4.27],0.57
4,CC(=O)N[C@@H](C)c1ccc(OC2CN(c3ccc4c(c3)OCC(C)(C)CO4)C2)cc1 [Example 1.18],0.14
5,CC(=O)N[C@@H](C)c1ccc(OC2CN(c3c(F)cc(OC4CC4)cc3F)C2)cc1 [Example 1.45],0.13
6,CC(=O)N[C@@H](C)c1ccc(OC2CN(c3nccc(C(F)(F)F)c3F)C2)cc1 [Example 4.10],0.37
7,CC(=O)N[C@@H](C)c1ccc(OC2CN(c3nc4ccccc4s3)C2)cc1 [Example 4.13],0.25
8,CCOC(=O)c1cc(C#N)c(N2CC(Oc3ccc([C@H](C)NC(C)=O)cc3)C2)nc1C(F)(F)F [Example 4.36],1.14
9,CC(=O)NC(C)c1ccc(OC2CN(c3ccc(OC4CCC4)cc3)C2)cc1 (stereo not drawn) [Example 1.4],0.13
10,CCC(C)Oc1ccc(N2CC(Oc3ccc([C@H](C)NC(C)=O)cc3)C2)c(OC)c1 (stereo partly drawn) [Example 1.38],2.31
11,CCNc1ncc(N2CC(Oc3ccc(C(C)NC(C)=O)cc3)C2)cn1 (stereo not drawn) [Example 1.7],1.25
12,CC(=O)N[C@@H](C)c1ccc(OC2CN(c3nnc(-c4ccccc4)s3)C2)cc1 [Example 3.9],3.82
13,CC(=O)NC(C)c1ccc(OC2CN(c3cnc(OC4CCC4)nc3)C2)cc1 (stereo not drawn) [Example 1.10],0.67
14,CC(=O)N[C@@H](C)c1ccc(OC2CN(c3ccc(OCC4CC4)cc3C#N)C2)cc1 [Example 1.47],0.4
15,C[C@H](NC(=O)C1CC1)c1ccc(OC2CN(c3ncc(Br)cn3)C2)cc1 [Example 3.6],3.88
16,CCOc1cccc(N2CC(Oc3ccc([C@H](C)NC(C)=O)cc3)C2)n1 [Example 4.11],3.62
17,CC(=O)N[C@@H](C)c1ccc(OC2CN(c3ccc(OCC4CC4)nc3C#N)C2)cc1 [Example 1.60],0.65
18,CC(=O)N[C@@H](C)c1ccc(OC2CN(c3ccc(-c4ccccc4)cn3)C2)cc1 [Example 4.8],0.24
19,CC(=O)N[C@@H](C)c1ccc(OC2CN(c3ccc(C(C)C)cn3)C2)cc1 [Example 4.5],2.45
20,CC(=O)N[C@@H](C)c1ccc(OC2CN(c3cc4c(cc3F)OCCCO4)C2)cc1 [Example 1.53],0.76
21,CCCOc1cccc(N2CC(Oc3ccc([C@H](C)NC(=O)N(C)C)cc3)C2)c1 [Example 1.42],1.05
22,"CC(=O)N[C@@H](C)c1ccc(OC2CN(c3ccc(OCC4CC4)cc3)C2)cn1 (stereo in doubt) [Example 14, N-(1-{5-[1-(4-Cyclopropylmethoxy-phenyl)-azetidin-3-yloxy]-pyridin-2-yl}-ethyl)-acetamide]",2.04
23,CC(=O)N[C@@H](C)c1ccc(OC2CN(c3ccc4oc(-c5ccccc5)nc4c3)C2)cc1 [Example 1.28],1.62
24,CC(=O)N[C@@H](C)c1ccc(OC2CN(c3cccc(OCC4CC4(F)F)c3)C2)cc1 (stereo partly drawn) [Example 7.2],1.25

row,Structure (SMILES),IC50 [µM]
1,CC(=O)N[C@@H](C)c1ccc(OC2CN(c3ccc4cc(Cl)ccc4n3)C2)cc1 [Example 4.15],0.69
2,C[C@H](NC(=O)C1CC1)c1ccc(OC2CN(c3ncc(C4CC4)cn3)C2)cc1 [Example 3.5],0.2
3,CCOc1ccc(N2CC(Oc3ccc([C@H](C)NC(=O)C4CC4)cc3)C2)cc1 [Example 2.10],0.14
4,CC(=O)N[C@@H](C)c1ccc(OC2CN(c3nccc(C(F)(F)F)n3)C2)cc1 [Example 4.16],0.47
5,CC(=O)N[C@@H](C)c1ccc(OC2CN(c3ccc4ccccc4n3)C2)cc1 [Example 4.2],2.04
6,CCOc1ccc(N2CC(Oc3ccc(C(C)NC(C)=O)cc3)C2)cc1 (stereo not drawn) [Example 1.5],0.2
7,CC(=O)NC(C)c1ccc(OC2CN(c3ccc(OC4CCCC4)cc3)C2)cc1 (stereo not drawn) [Example 1.6],0.08
8,CC(=O)N[C@@H](C)c1ccc(OC2CN(c3cc(C(F)(F)F)ccn3)C2)cc1 [Example 4.20],0.77
9,C[C@H](NC(=O)C1CC1)c1ccc(OC2CN(c3ccc4c(c3)OCCO4)C2)cc1 [Example 1.41],1.23
10,CCCOc1cccc(N2CC(Oc3ccc([C@H](C)NC(C)=O)cc3)C2)c1 [Example 1.48],1.02
11,CC(=O)N[C@@H](C)c1ccc(OC2CN(c3ccc(Cl)c(C(F)(F)F)n3)C2)cc1 [Example 4.32],0.1
12,CC(=O)N[C@@H](C)c1ccc(OC2CN(c3ccc(OCC4CC4)cc3)C2)cc1 [Example 1.14],0.07
13,C[C@H](NC(=O)N(C)C)c1ccc(OC2CN(c3ccc(OCC4CC4)cc3)C2)cc1 [Example 1.33],0.2
14,COc1cc(OCC2CC2(F)F)ccc1N1CC(Oc2ccc([C@H](C)NC(C)=O)cc2)C1 (stereo partly drawn) [Example 1.61],2.54
15,CC(=O)N[C@@H](C)c1ccc(OC2CN(c3cc(C(F)(F)F)cc(C)n3)C2)cc1 [Example 4.4],3.99
16,CC(=O)N[C@@H](C)c1ccc(OC2CN(c3ccnc(OC(C)C)c3)C2)cc1 [Example 2.7],2.06
17,CCCOc1ccc(N2CC(Oc3ccc([C@H](C)NC(C)=O)cc3)C2)nc1 [Example 1.52],0.09
18,CC(=O)N[C@@H](C)c1ccc(OC2CN(c3nc(-c4ccccc4)no3)C2)cc1 [Example 4.41],3.48
19,C[C@H](NC(=O)C1CC1)c1ccc(OC2CN(c3ccc(OCC4CC4)cc3)C2)cc1 [Example 1.40],1.03
20,CCOc1ccc(N2CC(Oc3ccc([C@H](C)NC(C)=O)cc3)C2)nc1 [Example 1.51],0.27
21,CC(=O)N[C@@H](C)c1ccc(OC2CN(c3cnc(NC4CCC4)nc3)C2)cc1 [Example 1.15],0.18
22,CC(=O)N[C@@H](C)c1ccc(OC2CN(c3ccc4c(c3)OC(F)(F)O4)C2)cc1 [Example 1.26],0.74
23,CC(=O)N[C@@H](C)c1ccc(OC2CN(c3ccc4c(c3)OCCCO4)C2)cc1 [Example 1.16],0.45

# Continued, values first:
row,IC50 [µM],Structure (SMILES)
1,0.3,CCOc1ccc(N2CC(Oc3ccc([C@H](C)NC(=O)C4(C(F)(F)F)CC4)cc3)C2)cc1 [Example 8.21]
2,2.25,CCOc1ccc(N2CC(Oc3ccc([C@H](C)NC(=O)c4ccnnc4)cc3)C2)cc1 [Example 8.14]
3,0.41,CCOc1ccc(N2CC(Oc3ccc([C@H](C)NC(=O)CC)cc3)C2)cc1 [Example 8.29]
4,1.87,CCOc1ccc(N2CC(Oc3ccc([C@H](C)NC(=O)c4nc(C)sc4C)cc3)C2)cc1 [Example 8.22]
5,3.04,CCOc1ccc(N2CC(Oc3ccc([C@H](C)NC(=O)C(C)(C)OC)cc3)C2)cc1 [Example 8.36]
6,2.31,CCOc1ccc(N2CC(Oc3ccc([C@H](C)NC(=O)c4cccnc4)cc3)C2)cc1 [Example 8.45]
7,0.43,CCCOc1ccc(N2CC(Oc3ccc([C@H](C)NC(=O)c4cncs4)cc3)C2)c(OC)c1 [Example 8.4]
8,2.39,CC(=O)N[C@@H](C)c1ccc(OC2CN(c3cc(OCC4CC4)ncn3)C2)cc1 [Example 11.4]
9,0.55,CCOc1ccc(N2CC(Oc3ccc([C@H](C)NC(=O)c4cnc(NC(C)=O)s4)cc3)C2)cc1 [Example 8.32]
10,5.79,CCOc1ccc(N2CC(Oc3ccc([C@H](C)NC(=O)CN(C)C)cc3)C2)cc1 [Example 8.23]
11,0.74,CCOc1ccc(N2CC(Oc3ccc([C@H](C)NC(=O)CC(F)(F)F)cc3)C2)cc1 [Example 8.18]
12,0.67,CCOc1ccc(N2CC(Oc3ccc([C@H](C)NC(=O)N(C)C)cc3)C2)cc1 [Example 10.3]
13,1.69,CCCC(=O)N[C@@H](C)c1ccc(OC2CN(c3ccc(OCC)cc3)C2)cc1 [Example 8.42]
14,0.93,CCOc1ccc(N2CC(Oc3ccc([C@H](C)NC(=O)C4CC(OC)C4)cc3)C2)cc1 (stereo partly drawn) [Example 8.44]
15,0.76,CCOc1ccc(N2CC(Oc3ccc([C@H](C)NC(=O)C4CC(C)C4)cc3)C2)cc1 (stereo partly drawn) [Example 8.27]
16,0.48,CCCOc1ccc(N2CC(Oc3ccc([C@H](C)NC(=O)N(C)C)cc3)C2)c(OC)c1 [Example 10.5]
17,0.42,COC(=O)N[C@@H](C)c1ccc(OC2CN(c3ncc(C4CC4)cn3)C2)cc1 [Example 10.6]
18,1.19,CCOc1ccc(N2CC(Oc3ccc([C@H](C)NC(=O)C4CCOC4)cc3)C2)cc1 (stereo partly drawn) [Example 8.46]
